The text below walks through data of paper PMC5971061, “Differential Effects of Linkers on the Activity of Amphiphilic Tobramycin Antifungals” (Molecules : A Journal of Synthetic Chemistry and Natural …, 2018).

Data set [1] concerns Candida glabrata clinical isolate CG2. In words: MIC, broth microdilution (CLSI M27-A3), CG2. The data set is classed as cell-based. The following applies: Nakaseomyces glabratus; MIC-0, CG2, 35 °C 48 h. An outline of the steps:
(§1)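 Overnight YPD-grown yeast were adjusted to OD600 0.12 (~1 × 10^6 CFU/mL), then diluted in RPMI 1640 to 1–5 × 10^3 CFU/mL and exposed to titrated compounds at final 0.24–62.5 μg/mL. Plates were incubated 35 °C for 48 h, in triplicate.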
(In broth dilution the organism is exposed to a series of concentrations in liquid medium.)

Data set [2] deals with Cryptococcus neoformans clinical isolate CN1. In words: MIC, broth microdilution (CLSI M27-A3), CN1. The following applies: MIC-0, CN1, 35 °C 48 h. In kind it is cell-based. The method, boiled down: as §1
Data set [3] concerns C. albicans ATCC MYA-2876(S) (strain C). Put plainly: MIC, broth microdilution (CLSI M27-A3), yeast strain C. In kind it is cell-based. The following applies: Candida albicans; MIC-0, strain C, 35 °C 48 h. The method, boiled down: as §1
The next data set has as its system BEAS-2B cell line. In words: In vitro cytotoxicity assay (resazurin), BEAS-2B. The following applies: 0.48-62.5 μg/mL, 24 h. In kind it is cell-based, human. As for the experimental part: Mammalian cytotoxicity assays were performed as previously described with minor modifications. The normal human bronchial epithelial cells BEAS-2B and the human lung carcinoma epithelial cells A549 were grown in DMEM containing 10% fetal bovine serum (FBS) and 1% antibiotics. The confluent cells were then trypsinized with 0.05% trypsin and 0.53 mM EDTA, and resuspended in fresh DMEM medium. The cells were transferred into 96-well microtiter plates at a density of 3000 cells/well and were grown for 24 h. The following day, the medium was replaced by a fresh culture medium containing serially diluted compounds 3, 4, 7a, 7b, and 9, as well as the parent drug TOB at final concentrations of 0.48–62.5 μg/mL or sterile ddH2O (negative control). The cells were incubated for an additional 24 h at 37 °C with 5% CO2 in a humidified incubator. To evaluate cell survival, each well was treated with 10 μL (25 μg/mL) of resazurin sodium salt (Sigma-Aldrich) for 4–6 h. Metabolically active cells can convert resazurin (blue) to the highly fluorescent dye resorufin (pink), which was detected at λ560 excitation and λ590 emission wavelengths by using a SpectraMax M5 plate reader. Triton X-100® (1% v/v) gave the complete loss of cell viability and was used as the positive control. The percentage survival rates were calculated by using the following formula: % cell survival = [(fluorescence of sample) − (fluorescence of blank)] × 100/[(fluorescence of negative control) − (fluorescence of blank)].
(Alamar Blue is a resazurin reagent that responds to reducing activity.)

The subject of data set [4] is seven C. albicans strains (A-G). In words: MIC across the panel of seven C. albicans strains. In kind it is cell-based. The following applies: Candida albicans; across all seven C. albicans strains tested. The procedure: (§2) The final concentrations of compounds 3, 4, 7a, 7b, 9, and 16, as well as that of TOB tested in this study ranged from 0.24–62.5 μg/mL. CAS was used as a positive control and the final concentrations tested for CAS ranged from 0.03–31.3 μg/mL. Briefly, overnight yeast cultures were grown in yeast peptone dextrose (YPD) broth and the cell density was adjusted to an OD600 of 0.12 (~1 × 10^6 CFU/mL) by using a spectrophotometer. Yeast cell suspensions were further diluted to achieve 1–5 × 10^3 CFU/mL in RPMI 1640 medium, and 100 μL of these yeast cells was added to 96-well microtiter plates containing RPMI 1640 medium and titrated compounds. Each test was performed in triplicate. The plates were incubated at 35 °C for 48 h.

In data set [5] the test system is Aspergillus terreus ATCC MYA-3633 (strain M). In words: MIC, filamentous fungi (CLSI M38-A2), strain M. In kind it is cell-based. The following applies: MIC-0, strain M, 35 °C 72 h. The method, boiled down:
(§3)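 Spores from PDA cultures, inoculum 5 × 10^5 spores/mL in RPMI 1640 against two-fold serial dilutions (0.24–62.5 μg/mL for tobramycin derivatives). Incubated 72 h at 35 °C, triplicate.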

The test system of data set [6] is Cryptococcus neoformans clinical isolate CN2. In words: MIC, broth microdilution (CLSI M27-A3), CN2. The data set is classed as cell-based. The following applies: MIC-0, CN2, 35 °C 48 h. The method, boiled down:
as §1

Data set [7] relates to Candida krusei ATCC 6258 (strain I). Put plainly: MIC, broth microdilution (CLSI M27-A3), yeast strain I. In kind it is cell-based. The following applies: Pichia kudriavzevii, ATCC6258; MIC-0, strain I, 35 °C 48 h. An outline of the steps: as §1
Data set [8] relates to Candida glabrata clinical isolate CG3. Put plainly: MIC, broth microdilution (CLSI M27-A3), CG3. In kind it is cell-based. The following applies: Nakaseomyces glabratus; MIC-0, CG3, 35 °C 48 h. The method, boiled down: as §1
Data set [9] has as its system C. albicans ATCC 90819(R) (strain D). Put plainly: MIC, broth microdilution (CLSI M27-A3), yeast strain D. In kind it is cell-based. The following applies: Candida albicans, ATCC90819; MIC-0, strain D, 35 °C 48 h. The method, boiled down: as §1
Data set [10] concerns Aspergillus nidulans ATCC 38163 (strain L). In words: MIC, filamentous fungi (CLSI M38-A2), strain L. The following applies: Aspergillus nidulans, ATCC38163, 72 h, MIC-0, strain L, 35 °C 72 h; read-out: MIC. The data set is classed as cell-based. An outline of the steps:
as §3

Data set [11] concerns Candida parapsilosis clinical isolate CP2. In words: MIC, broth microdilution (CLSI M27-A3), CP2. In kind it is cell-based. The following applies: Lodderomyces parapsilosis; MIC-0, CP2, 35 °C 48 h. The method, boiled down: as §1
For data set [12], the system named is nine non-albicans Candida strains (H-J, CG1-3, CP1-3). In words: MIC across the panel of nine non-albicans Candida strains. In kind it is cell-based, Candida glabrata, Candida krusei, Candida parapsilosis. The procedure: as §2
The subject of data set [13] is Cryptococcus neoformans clinical isolate CN3. Put plainly: MIC, broth microdilution (CLSI M27-A3), CN3. In kind it is cell-based. The following applies: MIC-0, CN3, 35 °C 48 h. An outline of the steps:
as §1

The test system of data set [14] is C. albicans ATCC 64124 (strain B). In words: MIC, broth microdilution (CLSI M27-A3), yeast strain B. In kind it is cell-based. The following applies: Candida albicans, ATCC64124; MIC-0, strain B, 35 °C 48 h. An outline of the steps:
as §1

The subject of data set [15] is Candida parapsilosis ATCC 22019 (strain J). Put plainly: MIC, broth microdilution (CLSI M27-A3), yeast strain J. In kind it is cell-based. The following applies: Lodderomyces parapsilosis, ATCC22019; MIC-0, strain J, 35 °C 48 h. The method, boiled down: as §1
Data set [16] deals with Candida glabrata clinical isolate CG1. Put plainly: MIC, broth microdilution (CLSI M27-A3), CG1. The following applies: Nakaseomyces glabratus; MIC-0, CG1, 35 °C 48 h. The data set is classed as cell-based. The method, boiled down: as §1

The structures appear in SMILES notation.

In the case of `NC[C@H]1O[C@H](O[C@H]2[C@H](O)[C@@H](O[C@H]3O[C@H](CO)[C@@H](O)[C@H](N)[C@H]3O)[C@H](N)C[C@@H]2N)[C@H](N)C[C@@H]1O` [TOB, tobramycin], the minimum inhibitory concentration (MIC) in data set [1], in data set [2], in [3], in data set [4], in [5] and in data set [6] was above 62.5 µg/mL in each case. Besides, the MIC in data set [7], in [8], in [9], in data set [10], in data set [11] and in data set [12] was above 62.5 µg/mL in each case. Besides, the minimal inhibitory concentration (MIC) in [13], in data set [14], in [15] and in [16] was above 62.5 µg/mL throughout. Moreover, the “toxicity (in words)” value with BEAS-2B cell line was “little to no toxicity”.
